{"source": "paper PMC8049054", "about": "“Systematic Assessment of Fragment Identification for Multitarget Drug Design” (Chemmedchem, 2021)", "key": {"[1]": {"tested_on": "T1, soluble epoxide hydrolase (sEH)", "T1 construct": "For the expression of sEH-H and sEH-Fl transformed E.coli BL21 (DE3) cells were grown in 5052; made in house; host or cells: E. coli BL21 (DE3)", "test": "Differential scanning fluorimetry (DSF) screen on sEH", "type": "binding", "settings": "50 µM reference compound, triplicates repeated 3 times"}, "[2]": {"target": "T2, soluble epoxide hydrolase (sEH) (Homo sapiens, UniProt P34913)", "T2 construct": "made in house; host or cells: E. coli BL21 (DE3)", "T2 sequence (P34913 1-555)": "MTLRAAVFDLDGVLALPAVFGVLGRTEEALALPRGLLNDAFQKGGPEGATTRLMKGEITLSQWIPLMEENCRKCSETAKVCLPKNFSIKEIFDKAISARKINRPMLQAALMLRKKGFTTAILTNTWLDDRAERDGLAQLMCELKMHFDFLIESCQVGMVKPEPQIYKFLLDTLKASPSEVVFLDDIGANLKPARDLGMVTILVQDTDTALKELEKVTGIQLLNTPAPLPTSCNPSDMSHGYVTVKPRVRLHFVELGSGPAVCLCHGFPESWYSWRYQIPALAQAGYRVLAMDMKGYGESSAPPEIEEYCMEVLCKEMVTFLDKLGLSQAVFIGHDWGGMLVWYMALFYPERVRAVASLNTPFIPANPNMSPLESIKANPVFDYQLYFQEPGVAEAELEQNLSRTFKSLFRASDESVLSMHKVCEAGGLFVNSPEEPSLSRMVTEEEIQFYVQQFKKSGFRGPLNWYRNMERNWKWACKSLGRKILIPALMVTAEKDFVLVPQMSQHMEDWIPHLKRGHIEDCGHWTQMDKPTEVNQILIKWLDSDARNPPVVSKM", "test": "sEH-H activity assay (fluorogenic substrate PHOME)", "type": "biochemical", "settings": "approved drug, 1-1000 µM", "protocol": "(§1) For hit validation, we employed secondary assays with orthogonal readouts to confirm fragment activities. Biochemical activity assays were chosen for the enzymes sEH, LTA4H, and 5‐LOX. […] RXRα and FXR modulation was assessed in cell‐based hybrid reporter gene assays. All ten compounds were tested at a single concentration of 500 μM in the sEH and LTA4H activity assays and with a concentration of 100 μM on 5‐LOX, RXRα, and FXR. Fragments showing an inhibition greater than 50 % (sEH‐H and LTA4H) or greater than 70 % (5‐LOX) as well as the hits determined in the DSF experiments were further characterized in full concentration‐response curves between 0.1 and 1000 μM. […] As alternative cell‐free assay we employed isothermal titration calorimetry (ITC) to determine binding affinity of the fragments towards the LBDs of both nuclear receptors. ITC was performed with a protein concentration of 50 μM and compound concentrations of 250 μM.\n(§2) The 10 fragments showing dual activity in the DSF experiments were validated by functional assay screening with a fixed concentration of 500 µM in case of sEH-H and LTA4H, 100 µM in case of 5-LOX and 30 µM, 10 µM and 5 µM in case of FXR and […]\n(§3) % (5-LOX) as well as the hits determined in the DSF experiments were further measured with concentrations between 1000 µM and 0.1 µM (sEH-H and LTA4H) and between 300 µM and 1 µM (5-LOX). The sEH and LTA4H activity assays were performed as triplicate and repeated 3 times. The 5-LOX activity assay was performed with one point per concentration and repeated 3 times Raw data was first analyzed in Microsoft Office Excel (2013), before IC50 curves were plotted and further analyzed using GraphPad Prism 7 and GraphPad Prism 8 for the shown graphs .\nThe eight approved drugs were measured in the orthogonal assay systems analogous to the fragments. The approved drugs were […]\nFor the sEH-H and LTA4H, they were measured as triplicate in concentrations between 1000 µM and 1 µM and each measurement was repeated three times. For the 5-LOX they were measured as single point measurement in three different experiments with concentrations between 300 µM and 1 µM. For […]\nRaw data was processed according to the fragments.\nThe sEH-H activity assay was performed adapted from Hahn et al.5 and Lukin et al.6. In short 1 µl of compound dilution in DMSO or pure DMSO (for the positive and negative control) was placed in a black 96-well plate (Thermo Scientific™ Nunc™ F96 MicroWell™ Black Polystyrene Plate) and then 89 µl of protein-mix or buffer mix (without protein as negative control) were added and the mixture was incubated for 30 min at room temperature. 10 µl of 0.6 mM 3-phenyl-cyano(6-methoxy-2-naphthalenyl)methylester-2-oxiraneacetic acid (PHOME) were added to every well. The Plate was measured every minute for 45 min. Final concentration per well was 3 nM sEH-Fl, 0.001 % Triton X-100, 25 mM Bis-tris, 0.1 mg/ml BSA, pH = 7.0, 1.6% DMSO […]"}, "[3]": {"target": "T3, 5‐lipoxygenase (5‐LOX) (Homo sapiens, UniProt P09917)", "T3 construct": "made in house; host or cells: E. coli BL21 (DE3)", "T3 sequence (P09917 1-674)": "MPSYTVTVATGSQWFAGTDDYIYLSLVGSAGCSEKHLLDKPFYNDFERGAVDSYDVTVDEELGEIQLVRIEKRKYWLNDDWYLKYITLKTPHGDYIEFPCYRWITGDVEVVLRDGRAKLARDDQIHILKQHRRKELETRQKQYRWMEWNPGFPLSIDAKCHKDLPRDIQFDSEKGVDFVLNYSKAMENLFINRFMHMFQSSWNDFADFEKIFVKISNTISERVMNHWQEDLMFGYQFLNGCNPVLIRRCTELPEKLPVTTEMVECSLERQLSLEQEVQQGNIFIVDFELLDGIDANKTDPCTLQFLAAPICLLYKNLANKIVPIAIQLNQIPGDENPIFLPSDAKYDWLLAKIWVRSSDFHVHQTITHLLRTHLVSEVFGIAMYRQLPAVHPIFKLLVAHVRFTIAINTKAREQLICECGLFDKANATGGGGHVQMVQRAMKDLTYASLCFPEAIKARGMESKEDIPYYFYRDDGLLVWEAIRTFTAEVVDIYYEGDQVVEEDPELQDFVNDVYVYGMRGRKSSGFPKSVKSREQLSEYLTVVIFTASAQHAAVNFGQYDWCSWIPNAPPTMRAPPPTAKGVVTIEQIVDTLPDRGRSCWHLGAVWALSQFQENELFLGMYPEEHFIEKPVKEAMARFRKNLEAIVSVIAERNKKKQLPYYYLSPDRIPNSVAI", "test": "5-LOX activity assay (HPLC detection of product formation)", "type": "biochemical", "settings": "mean±standard deviation of three independent experiments", "protocol": "as §1, §2, §3\nThe eight approved drugs were measured in the orthogonal assay systems analogous to the fragments. […]\nFor the 5-LOX they […]\nwere measured as single point measurement in three different experiments with concentrations between 300 µM and 1 µM. For […]\nRaw data was processed according to the fragments. […]"}, "[4]": {"tested_on": "sEH, LTA4H, 5‐LOX, RXRα, FXR", "test": "DSF primary screen, statement over all five proteins", "type": "binding", "settings": "500 μM", "source_text": "For the primary screen of this fragment library, we employed differential scanning fluorimetry (DSF, also known as thermal shift). DSF is generally applicable to a large panel of protein targets and provides a robust, low‐cost screening technology for fragment‐based approaches. ^[20] All five proteins of our interest are soluble and were recombinantly expressed in Escherichia coli. We performed an initial fragment screen on all five targets by DSF. The use of a uniform screening method for all targets ensured consistent data and provided the opportunity to identify false positive hits which interfered with the screening technology. The conditions of the DSF assay were optimized for the desired screening and validated with reference compounds (Table S1 in the Supporting Information). Compounds causing a positive thermal shift ΔT m≥1.0 °C were considered as active. […]\nThe measurements were performed using a iCycler iQ™ Single -Color Real Time PCR device with a heat rate of 1 °C per min, an excitation wavelength of 490 nm and an emission wavelength of 570 nm. The first derivation calculated by MyiQ Op tical Software 1.0 was analyzed using Microsoft Office Excel 2013 by comparing the maxima. […]"}, "[5]": {"tested_on": "T4, RXRα", "T4 construct": "MBP (N, cleaved yes); poly-N-tag, His8-tag, TEV site (N, cleaved yes); made in house; host or cells: E. coli T7-express with pGro7 (GroEL/ES)", "test": "Differential scanning fluorimetry (DSF) screen on RXRα", "type": "binding", "settings": "50 µM reference compound; measured once as triplicate; no melting curve with DMSO"}, "[6]": {"target": "T3, 5‐lipoxygenase (5‐LOX)", "test": "Differential scanning fluorimetry (DSF) screen on 5-LOX", "type": "binding", "settings": "100 µM reference compound; measured once as triplicate"}, "[7]": {"target": "T5, leukotriene A4 hydrolase (LTA4H) (Homo sapiens, UniProt P09960)", "T5 construct": "made in house; host or cells: E. coli BL21 (DE3)", "T5 sequence (P09960 1-611)": "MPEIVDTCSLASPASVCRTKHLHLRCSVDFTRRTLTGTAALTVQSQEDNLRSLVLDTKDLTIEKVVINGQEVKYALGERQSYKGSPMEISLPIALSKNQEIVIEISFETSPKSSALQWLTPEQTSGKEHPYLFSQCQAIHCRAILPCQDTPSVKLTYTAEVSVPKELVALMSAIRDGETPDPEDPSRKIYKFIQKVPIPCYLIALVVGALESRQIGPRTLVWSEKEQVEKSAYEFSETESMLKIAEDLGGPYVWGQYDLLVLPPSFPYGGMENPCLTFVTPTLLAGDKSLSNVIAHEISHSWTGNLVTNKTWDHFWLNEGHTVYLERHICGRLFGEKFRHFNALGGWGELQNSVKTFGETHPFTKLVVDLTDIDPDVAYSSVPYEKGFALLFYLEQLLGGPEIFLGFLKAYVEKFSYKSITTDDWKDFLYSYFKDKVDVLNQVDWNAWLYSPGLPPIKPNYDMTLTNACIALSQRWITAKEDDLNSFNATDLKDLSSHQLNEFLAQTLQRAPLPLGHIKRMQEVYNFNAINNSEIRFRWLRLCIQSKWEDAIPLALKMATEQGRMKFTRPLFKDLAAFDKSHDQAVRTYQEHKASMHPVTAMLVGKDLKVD", "test": "Differential scanning fluorimetry (DSF) screen on LTA4H", "type": "binding", "settings": "50 µM reference compound, triplicates repeated 3 times"}}, "data": [{"smiles": "O=C(Nc1ccc(I)cc1)NC1CCCCC1", "note": "[CIU]", "values": [{"measurement": "TM(ref) sEH-H", "setting": "[1]", "result": "62.2 ± 0.4", "unit": "°C"}, {"measurement": "ΔTM sEH-H", "setting": "[1]; in °C", "result": "5.6 ± 0.5"}]}, {"smiles": "CC(C)COCC(CN(Cc1ccccc1)c1ccccc1)N1CCCC1", "note": "(stereo not shown) [Compound 15, bepridil, reference compound]", "values": [{"measurement": "activity towards sEH", "setting": "[2]", "result": "completely loosing activity"}, {"measurement": "IC50", "setting": "[3]", "result": 3.2, "unit": "µM"}]}, {"smiles": "O=C(NCc1cccnc1)c1ccc(O)cc1", "note": "[Compound 22]", "values": [{"measurement": "activity in the DSF screen", "setting": "[4]", "result": "no activity"}]}, {"smiles": "Cc1nc2ccccc2[nH]1", "note": "[Compound 24]", "values": [{"measurement": "activity in the DSF screen", "setting": "[4]", "result": "no activity"}]}, {"smiles": "CC1(C)CCC(C)(C)c2cc(C3(c4ccc(C(=O)O)cc4)OCCO3)ccc21", "note": "[SR11237]", "values": [{"measurement": "TM(ref) RXRα", "setting": "[5]", "result": "59.0 ± 0.0", "unit": "°C"}]}, {"smiles": "C[C@H](C#Cc1ccc(Cc2ccc(F)cc2)s1)N(O)C(N)=O", "note": "[atreleuton]", "values": [{"measurement": "TM(ref) 5-LOX", "setting": "[6]", "result": "63.7 ± 0.6", "unit": "°C"}]}, {"smiles": "CC(C)C[C@H](NC(=O)[C@@H](O)[C@H](N)Cc1ccccc1)C(=O)O", "note": "[bestatin]", "values": [{"measurement": "TM(ref) LTA4H", "setting": "[7]", "result": "60.7 ± 0.9", "unit": "°C"}, {"measurement": "ΔTM LTA4H", "setting": "[7]; in °C", "result": "5.9 ± 0.7"}]}]}
